# Results: patent publication US9321772B2, “Substituted pyrazolo[3,4-D]pyrimidines and uses thereof” (The Regents of the University of California, priority 2011, dated 2016)
# Entries after “also recorded” stand apart in the source; their conditions may differ.
# How the values were obtained:
# ptc>dRet^MEN2B flies = assay: Drosophila ptc>dRetMEN2B viability assay; format: in vivo; conditions: for notum, scutellum and cuticle defects of ptc>dRetMEN2B adults: drug fed flies; for effect of reducing erk gene dosage on drug efficacy in viability assay: ptc>dRetMEN2B
# Description: FIG. 1A. Suppression of Ret^MEN2B-induced developmental block and whole animal toxicity were scored based on number of embryos (n) that survived as pupae (x) and adults (y). Drugs were mixed into food and fed to flies starting at larval stages.
# FIG. 1B. Percent viability of control or drug treated flies determined for pupae (x/n) and adults (y/n).
# Described herein is a Drosophila MEN2B model in which an intracellular mutation in the Drosophila Ret ortholog (dRet) was targeted to the eye (Read, R. D. et al., Genetics, 2005. 171(3): p. 1057-81). […] The screen is conducted in developing drosophila embryos. Under normal circumstances, drosophila embryos pass through four developmental steps: embryo→larvae→pupae→adult. […] We calibrated the ptc>dRetMEN2B assay to permit 50% survival to pupariation and 0% survival to adulthood. Mutated forms of RET are believed to be causative in human thyroid cancers including multiple endocrine neoplasia types 2A and 2B (MEN2A and MEN2B). The screen identifies small molecules that (a) suppress the toxicity induced by oncogenic RET and (b) allow flies to develop to functional adults. […] 64(19): p. 7099-109; Sun, L. et al., J Med Chem, 2003. 46(7): p.
# [1] = system: ptc>dRet^MEN2B wing cells; assay: Wing-based assay for transformation and cell migration (ptc>dRetMEN2B); format: in vivo, Drosophila; conditions: oral administration
# Description: FIG. 4E. Quantification of ptc>dRet^MEN2B phenotypes. Invasion was established by scoring for single/groups of GFP-labeled cells that relocated away from the ptc boundary (FIG. 4C, asterisks). Basal migration was scored as indentation of the apical surface (see FIG. 2B, arrows). Proliferation was scored as significant widening of the ptc boundary. The number of wings analyzed under each condition is indicated in brackets.
# We previously developed a wing-based assay for transformation and cell migration that we utilized to explore Ras- and Src-based tumorigenesis (Vidal, M., D. E. Larson, and R. L. Cagan, Dev Cell, 2006. 10(1): p. 33-44). In this assay, the ptc-GAL4 driver directed oncogene expression in a stripe along the anterior-posterior axis; oncogene-based transformation led to over-proliferation, epithelial-to-mesenchymal transition (EMT), and cell migration away from the ptc domain.
# B-Raf = B-Raf (Homo sapiens, UniProt P15056); assay: In vitro kinase assay, B-Raf; format: biochemical; conditions: in vitro kinase profile, 1 μM
# Protocol: (§1) Using in vitro kinase assays we tested AD57, AD36, and AD58 at 1 μM for activity against approximately one-half of the human kinome (FIG. 1E): 165 Ser/Thr kinases, 91 Tyr kinases, and 10 PI kinases were assayed, totaling 266 kinases (244 distinct kinases plus 22 mutant isoforms; see FIG. 6A-6C, FIG. 7A-7F, and FIG. 8 for measured inhibition values).
# (§2) At least three major pathways are required for dRet^MEN2B-mediated transformation: Ras, Src, and glucose metabolism/PI3K (FIG. 3A; Ref (Read, R. D. et al., Genetics, 2005. 171(3): p. 1057-81)). We utilized in vitro kinase assays to assess compound activity against relevant kinases from each of these pathways, specifically Ret, B-Raf, Src, Tor, and S6K (FIG. 3B).
# Src = Src (Homo sapiens, UniProt P12931); assay: In vitro kinase assay, Src; format: biochemical; conditions: in vitro kinase profile, 1 μM
# Protocol: as §1, §2
# [2] = system: MZ-CRC-1 (MEN2B) cancer cell line; assay: MZ-CRC-1 cell viability (MTT assay); format: cell-based, human
# [3] = system: TT (MEN2A) thyroid cancer cells; assay: TT cell viability (MTT assay); format: cell-based, human
# Protocol: (§3) FIG. 18A-18D. […] FIG. 18A. MEN2B (MZ) thyroid cancer cells were treated with the indicated concentrations of each inhibitor (7 days) and cell viability was quantitated by MTT assay. FIG. 18B. MEN2A (TT) thyroid cancer cells were treated with the indicated concentrations of each inhibitor (7 days) and cell viability was quantitated by MTT assay. FIG. 18C. […] Change in tumor volume was calculated per mouse. Values shown are the median percent change per group. 20 and 10 animals for vehicle and drug treated mice, respectively, were analyzed. FIG. 18D. Body weight measurements of AD80, Vandetanib (VD) and vehicle treated nude mice transplanted with TT cells. Values shown are the median of 20 and 10 animals for vehicle and drug treated mice, respectively.
# [4] = system: MEN2B (MZ) thyroid cancer cells; assay: Immunoblot analysis of drug-treated MZ cells; format: cell-based, human; conditions: for phospho-Ret and downstream biomarkers: 1 hour of treatment; for cell death (protein markers of apoptosis): 3 days, 2 μM
# Protocol: FIG. 19. […] MEN2A (TT) and MEN2B (MZ) thyroid cancer cells were treated with the indicated drugs for 3 days at a final concentration of 2 μM. Cell lystates were immunoblotted for protein markers of apoptosis. Vandetanib (vand.) was included for comparison.
# FIG. 20A-20B. […] FIG. 20A. MEN2B (MZ) and FIG. 20B. MEN2A (TT) thyroid cancer cells were treated with the indicated concentrations of drug. Following 1 hour of treatment, cells were harvested and lysates prepared for immunoblotting to detect the indicated proteins. VD=vandetanib; SF=sorafenib.
# [5] = system: TT cell tumors in athymic nu/nu mice; assay: MEN2 (TT) mouse xenograft model; format: in vivo; conditions: for reduction of tumor progression relative to vehicle: nude mice transplanted with TT cells, oral gavage, median per group; for toxicity as assessed by animal body weights / tumor growth, in words: nude mice with TT tumors, PO administration
# Protocol: FIG. 11. […] TT thyroid cancer cells were implanted into athymic nu/nu mice subcutaneously into the right flank under the conditions listed. Upon establishment of tumors, drugs were administered by oral gavage (5 days ON/2 days OFF schedule). Tumors were measured using digital calipers. […] VD=vandetanib.
# as §3
# TT-based tumors were grown for 46 days in athymic nu/nu male mice prior to drug administration.
# [6] = system: ER4 cells (ER4 subline of HCC827 cells resistant to erlotinib); assay: Erlotinib sensitivity of ER4 cells with AXL inhibitor treatment; format: cell-based; conditions: 0.1, 1, 10 micromolar in combination with erlotinib
# Description: FIG. 21A-21C. Overcoming acquired resistance through AXL inhibitor treatment. Erlotinib plus AD57, AD80, or AD81 in ER4 cells (ER4 subline of HCC827 cells that are resistant to erlotinib treatment). Legend: diamond symbols are DMSO control, square symbols are 0.1 micromolar of compound, triangle symbols are 1 micromolar of compound, x symbol are 10 micromolar of compound, all in combination with erlotinib.
# [7] = system: ER4 cells (ER4 subline of HCC827 cells resistant to erlotinib); assay: Apoptosis in ER4 cells (PARP cleavage, BIM induction); format: cell-based; conditions: 1 micromolar combined with erlotinib, 24 hour exposure
# Protocol: FIG. 22. Induction of apoptosis by combined EGFR and AXL inhibition. ER4 cells (ER4 subline of HCC827 cells that are resistant to erlotinib treatment) plated at 0.5×10^6 cells/condition. 24-hour drug exposure. Apoptosis measured by induction of PARP cleavage and BIM induction. E is erlotinib, AD57 at 1 micromolar, AD80 at 1 micromolar, AD81 at 10 micromolar.
# [8] = oral administration, drug mixed into food
# Src, sequence (P12931 whole entry): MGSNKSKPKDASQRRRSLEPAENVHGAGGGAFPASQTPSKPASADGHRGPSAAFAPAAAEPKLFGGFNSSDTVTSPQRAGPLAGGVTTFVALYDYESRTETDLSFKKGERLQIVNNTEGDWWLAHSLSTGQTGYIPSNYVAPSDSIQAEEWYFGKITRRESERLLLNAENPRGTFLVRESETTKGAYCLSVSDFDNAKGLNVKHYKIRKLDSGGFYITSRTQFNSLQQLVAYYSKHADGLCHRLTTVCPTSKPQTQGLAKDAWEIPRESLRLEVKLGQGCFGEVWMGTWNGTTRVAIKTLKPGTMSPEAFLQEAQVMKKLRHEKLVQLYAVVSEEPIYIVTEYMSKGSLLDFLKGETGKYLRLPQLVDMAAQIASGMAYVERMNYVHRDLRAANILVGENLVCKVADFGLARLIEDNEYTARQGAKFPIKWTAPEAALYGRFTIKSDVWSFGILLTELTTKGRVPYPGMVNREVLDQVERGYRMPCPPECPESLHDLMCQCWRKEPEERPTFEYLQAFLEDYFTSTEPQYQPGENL
# B-Raf, sequence (P15056 whole entry, canonical isoform): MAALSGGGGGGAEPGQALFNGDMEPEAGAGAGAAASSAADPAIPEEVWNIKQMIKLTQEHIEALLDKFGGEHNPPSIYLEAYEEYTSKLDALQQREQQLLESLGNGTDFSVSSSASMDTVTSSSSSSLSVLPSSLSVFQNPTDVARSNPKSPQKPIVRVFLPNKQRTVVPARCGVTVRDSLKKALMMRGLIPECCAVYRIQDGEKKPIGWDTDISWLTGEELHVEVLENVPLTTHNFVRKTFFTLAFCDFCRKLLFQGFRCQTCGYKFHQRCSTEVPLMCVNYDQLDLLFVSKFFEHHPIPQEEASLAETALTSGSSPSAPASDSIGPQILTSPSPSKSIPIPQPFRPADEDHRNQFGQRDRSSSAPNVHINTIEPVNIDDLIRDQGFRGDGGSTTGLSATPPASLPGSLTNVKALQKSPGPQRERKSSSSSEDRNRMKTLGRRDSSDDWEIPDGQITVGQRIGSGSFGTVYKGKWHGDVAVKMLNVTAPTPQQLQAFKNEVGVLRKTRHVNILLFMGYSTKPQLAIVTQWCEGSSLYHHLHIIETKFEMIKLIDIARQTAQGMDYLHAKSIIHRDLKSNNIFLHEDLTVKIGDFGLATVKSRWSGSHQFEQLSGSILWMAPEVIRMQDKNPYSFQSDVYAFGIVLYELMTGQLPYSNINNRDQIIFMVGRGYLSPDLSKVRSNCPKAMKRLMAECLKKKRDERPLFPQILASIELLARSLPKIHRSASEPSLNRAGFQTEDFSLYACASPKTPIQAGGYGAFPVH
Structure (SMILES),"notum, scutellum and cuticle defects of ptc>dRetMEN2B adults (ptc>dRet^MEN2B flies)",animals rescued / developing to adulthood (ptc>dRet^MEN2B flies; [8]),"rescue of ptc>dRetMEN2B viability (pupae, adults), in words (ptc>dRet^MEN2B flies; [8])",effect of reducing dTor on drug efficacy/toxicity (ptc>dRet^MEN2B flies; ptc>dRetMEN2B dTor-/+),effect of reducing erk gene dosage on drug efficacy in viability assay (ptc>dRet^MEN2B flies),basal phospho-Src in wing epithelium [1],"suppression of dRetMEN2B-induced proliferation, EMT, invasion/basal migration [1]","B-Raf (Raf) inhibition, in words (B-Raf)","Src inhibition, in words (Src)","inhibition of MZ-CRC-1 cell viability / proliferation, in words [2]","IC50, fold more potent than Sorafenib ([2]; MZ-CRC-1 cell viability)","inhibition of TT cell viability / proliferation, in words [3]","IC50, fold lower than Vandetanib ([3]; TT cell line, dose-response)",phospho-Ret and downstream biomarkers [4],cell death (protein markers of apoptosis) [4],reduction of tumor progression relative to vehicle [5] [fold],toxicity as assessed by animal body weights [5],"tumor growth, in words [5]",sensitivity to erlotinib [6],"apoptosis (PARP cleavage, BIM induction) [7]"
CC(C)n1nc(-c2ccc(NC(=O)Nc3cccc(C(F)(F)F)c3)cc2)c2c(N)ncnc21 [AD57],strongly suppressed; also recorded: complete suppression of notum and scutellum defects; also recorded: some cuticle defects,approximately 25%,best single-agent hit; also recorded: potently suppressed,dominantly suppressed the efficacy,considerably enhanced the efficacy,suppressed phospho-Src in basal regions of the wing epithelium,potent in vivo suppression; also recorded: strongly suppressed,potent inhibitor,potent inhibitor; also recorded: strongly inhibited,most potent inhibition,approximately 150 fold,most potent inhibition,more than 150 fold,potent inhibitors,induce cell death,~3,no detectable toxicity,displays antitumor activity; also recorded: significant suppression of tumor growth,confer dose-dependent sensitivity to erlotinib,enhances apoptosis
CC(C)n1nc(-c2ccc(NC(=O)Nc3cc(C(F)(F)F)ccc3F)cc2)c2c(N)ncnc21 [AD80],phenotypically normal,–,improved rescue relative to AD57,–,did not alter efficacy,potently blocked,significantly improved suppression; also recorded: potently blocked,inhibited,inhibited,inhibited proliferation,–,inhibited proliferation,–,potent downregulation of phospho-Ret; also recorded: potent inhibitors,induce cell death,3.1,reduced body weight modulation relative to Vandetanib,enhanced tumor growth inhibition,confer dose-dependent sensitivity to erlotinib,enhances apoptosis
